Test results taken from US4170656A, “Compositions containing cis-2-benzoyl-3-hydroxy-crotononitrile used to treat inflammation and joint deterioration” (priority 1978, dated 1979).

Tests used:
[1] = Adjuvant induced arthritis in rats (Freund's adjuvant); type: in vivo, Royal Hart, Wistar strain rats; details: for Dead/Treated At 21 Days: days 0-13
Experimental: Groups of three Royal Hart, Wistar strain rats weighing 200±10 grams each were injected intradermally in the right hind paw with Freund's adjuvant (dried human tubercle bacilli in a mineral oil vehicle) at a dose of 2 mg./kg. of body weight. Test compound was administered orally in a 1.5% starch vehicle at various doses once daily on days 0 through 13 post challenge. Control rats were treated in a similar manner, but given only starch vehicle. On the 14th and 21st day post challenge the diameter of the injected paw (primary lesion) was measured by micrometer caliper. The volume of inflamed paws were estimated from these measurements and the results are expressed as percent inhibition of swelling as compared to controls. At the same time, the other inflamed sites, such as ears, paws and tail (seconday lesions) were observed and each rat was graded as to degree of inflammation and swelling present. The grading is based on a scale of 0 to 24, where 0 represents a complete absence of induced arthritic nodules and 24 represents the maximum degree of inflammation. The mean grade for each treated group is calculated and the effects of each compound are expressed as percent inhibition of the control grade. Table I records the results of tests conducted with a typical compound of the present invention and known anti-inflammatory agents.

[2] = Ultraviolet induced erythema in guinea pigs; type: in vivo, Albino guinea pigs; details: maximum 3.0
Experimental: Albino guinea pigs were depilitated on their flanks, the evening before testing, with a standard mixture of barium sulfide and gum acacia. On the morning of the test, groups of four guinea pigs were dosed by gavage one hour prior (-1 hour) to ultraviolet exposure. At 0 hour they were restrained in a plastic container which allows exposure of 3 circular spots. They were then exposed to ultraviolet irradiation from a "Hanovia" Kromayer lamp, model 10, for 60 seconds. At one and four hours, the degree of erythema for each of the three sites was assessed according to the following scoring system: 0= no erythema, 0.5=incomplete circle or faint erythema, and 1.0=complete circle of distinct erythema. Thus, the maximum score for each animal was 3.0.

[3] = Carrageenin induced paw edema in rats (acute anti-inflammatory activity); type: in vivo, Royal Hart, Wistar strain rats; details: 250 mg./kg. by gavage; 5 hours after drug (4 hours after carrageenin); ratio greater than 1.41 is active
Experimental: In determining the acute anti-inflammatory activity of the cis-2-benzoyl-3-hydroxy-2-alkenonitriles of the present invention, Royal Hart, Wistar strain rats, ranging in weight from 80 to 90 grams were used. The rats were fasted overnight prior to dosing but had free access to water. The test compounds were administered in aqueous suspension, by gavage, in a volume of 1.7 ml. per 50 grams of rat [corresponds to hydration volume used by Winter, et al., Proc. Soc. […] The phlogistic agent used was carrageenin prepared as a sterile 1% suspension in 0.9% aqueous sodium chloride for routine testing. A volume of 0.05 ml. was injected through a 26 gauge needle into the plantar tissue of the right hind paw. Measurements were made 5 hours after drug administration (4 hours after carrageenin challenge). Volumes of both the normal and carrageenin inflammed feet were determined. The difference between the two measurements is considered to be the increased edema due to the carrageenin administration.

[4] = S. Wong et al. (1973); G. R. Bobalick et al. (1974); cited from earlier work

In the case of `COc1ccc2c(c1)c(CC(=O)O)c(C)n2C(=O)c1ccc(Cl)cc1` [Indomethacin], the “% Inhibition of Control Grade (secondary lesion)” value (“% Inhibition of Control Grade” below) ([1]; oral 0.25 mg./kg., Day 14) is reported as 22%, the “% Inhibition of Swelling (primary lesion)” value (shortened to “% Inhibition of Swelling”) ([1]; oral 0.25 mg./kg., Day 14) is reported as 30% and the “Mean Weight Gain” value ([1]; oral 0.25 mg./kg., Day 14) is reported as 51 grams. The “% Inhibition of Control Grade” value ([1]; oral 0.25 mg./kg., Day 21) was 4%, the “% Inhibition of Swelling” value ([1]; oral 0.25 mg./kg., Day 21) was 4% and the “Mean Weight Gain” value ([1]; oral 0.25 mg./kg., Day 21) was 57 grams. For the same compound, the “Dead/Treated At 21 Days” value ([1]; oral 0.25 mg./kg.) was 0/9, the “% Inhibition of Control Grade” value ([1]; oral 0.5 mg./kg., Day 14) was 25% and the “% Inhibition of Swelling” value ([1]; oral 0.5 mg./kg., Day 14) was 40%. The “Mean Weight Gain” value ([1]; oral 0.5 mg./kg., Day 14) was 53 grams, the “% Inhibition of Control Grade” value ([1]; oral 0.5 mg./kg., Day 21) was 17% and the “% Inhibition of Swelling” value ([1]; oral 0.5 mg./kg., Day 21) was 20%. The “Mean Weight Gain” value ([1]; oral 0.5 mg./kg., Day 21) was 51 grams, the “Dead/Treated At 21 Days” value ([1]; oral 0.5 mg./kg.) was 5/54 and the “% Inhibition of Control Grade” value ([1]; oral 1 mg./kg., Day 14) was 34%. For the same compound, the “% Inhibition of Swelling” value ([1]; oral 1 mg./kg., Day 14) was 46%, the “Mean Weight Gain” value ([1]; oral 1 mg./kg., Day 14) was 63 grams and the “% Inhibition of Control Grade” value ([1]; oral 1 mg./kg., Day 21) was 20%. The “% Inhibition of Swelling” value ([1]; oral 1 mg./kg., Day 21) was 19%, the “Mean Weight Gain” value ([1]; oral 1 mg./kg., Day 21) was 65 grams and the “Dead/Treated At 21 Days” value ([1]; oral 1 mg./kg.) was 9/54. For the same compound, the “% Inhibition of Control Grade” value ([1]; oral 2 mg./kg., Day 14) was 38%, the “% Inhibition of Swelling” value ([1]; oral 2 mg./kg., Day 14) was 51% and the “Mean Weight Gain” value ([1]; oral 2 mg./kg., Day 14) was 68 grams. The “% Inhibition of Control Grade” value ([1]; oral 2 mg./kg., Day 21) was 25%, the “% Inhibition of Swelling” value ([1]; oral 2 mg./kg., Day 21) was 24% and the “Mean Weight Gain” value ([1]; oral 2 mg./kg., Day 21) was 68 grams. The “Dead/Treated At 21 Days” value ([1]; oral 2 mg./kg.) was 8/57, the “Erythema Score (avg.)” value ([2]; oral 3.9 mg./kg., 1 hour) was 1.2 and the “Erythema Score (avg.)” value ([2]; oral 3.9 mg./kg., 4 hours) was 2.9. For the same compound, the “Erythema Score (avg.)” value ([2]; oral 7.8 mg./kg., 1 hour) was 0.6, the “Erythema Score (avg.)” value ([2]; oral 7.8 mg./kg., 4 hours) was 2.3 and the “Erythema Score (avg.)” value ([2]; oral 15.6 mg./kg., 1 hour) was 0. The “Erythema Score (avg.)” value ([2]; oral 15.6 mg./kg., 4 hours) was 2.0, the “Erythema Score (avg.)” value ([2]; oral 31.3 mg./kg., 1 hour) was 0.1 and the “Erythema Score (avg.)” value ([2]; oral 31.3 mg./kg., 4 hours) was 1.9. The “Erythema Score (avg.)” value ([2]; oral 62.5 mg./kg., 1 hour) was 0, the “Erythema Score (avg.)” value ([2]; oral 62.5 mg./kg., 4 hours) was 1.3 and the “Erythema Score (avg.)” value ([2]; oral 125 mg./kg., 1 hour) was 0. The “Erythema Score (avg.)” value ([2]; oral 125 mg./kg., 4 hours) was 1.3, the “Erythema Score (avg.)” value ([2]; oral 250 mg./kg., 1 hour) was 0 and the “Erythema Score (avg.)” value ([2]; oral 250 mg./kg., 4 hours) was 1.0. For the same compound, the “C/T Edema Ratio” value [3] was 2.9, the arthritic paw swelling [4] was “inhibit arthritic paw swelling” and the “joint and bone deterioration” value [4] was “prevent joint and bone deterioration”.
